Source: patent US20260256792A1, “TREATMENT OF CHRONIC SPONTANEOUS URTICARIA BY ADMINISTERING (R)-2-[3-[4-AMINO-3-(2-FLUORO-4-PHENOXY-PHENYL)PYRAZOLO[3,4-D]PYRIMIDIN-1-YL]PIPERIDINE-1-CARBONYL]-4-METHYL-4-[4-(OXETAN-3-YL)PIPERAZIN-1-YL]PENT-2-ENENITRILE” (priority 2023, published 2026)

Test system: angioedema in CSU patients
Experiment: Phase 2 CSU study: angioedema activity score over 7 days (AAS7)
Type: in vivo, human
Conditions: for Non-responder n (%), AAS7 = 0 / OR (95% CI) for rilzabrutinib vs. placebo, AAS7 = 0 / RRD (%) for rilzabrutinib vs. placebo (95% CI), AAS7 = 0 / Responder n (%), AAS7 = 0: outlier removed
Source text: The study comprises a 12 week, randomized, double-blind, placebo-controlled, multi-center, dose-ranging efficacy and safety phase, followed by a 40 week open label extension (OLE) phase (see FIG. 1). The study consists of three phases and an optional OLE phase. […] The weekly angioedema activity score (AAS7) was proposed as a tertiary endpoint. […] Patients were to complete the AAS using the e-diary. The e-diary was to be used once daily on the same time of each day recording of participant's answers to the angioedema activity score over 7 days (AAS7) questionnaire.

[1] = 400 mg BID, Week 12, omalizumab-naïve, angioedema at baseline
[2] = 400 mg QPM, Week 1, ITT, angioedema at baseline
[3] = 400 mg QPM, Week 1, omalizumab-naïve
[4] = 400 mg QPM, Week 1, omalizumab-naïve, angioedema at baseline
[5] = 400 mg QPM, Week 2, ITT, angioedema at baseline
[6] = 400 mg QPM, Week 2, omalizumab-naïve
[7] = 400 mg QPM, Week 2, omalizumab-naïve, angioedema at baseline
[8] = 400 mg QPM, Week 3, ITT, angioedema at baseline
[9] = 400 mg QPM, Week 3, omalizumab-naïve
[10] = 400 mg QPM, Week 3, omalizumab-naïve, angioedema at baseline
[11] = 400 mg QPM, Week 4, ITT, angioedema at baseline
[12] = 400 mg QPM, Week 4, omalizumab-naïve
[13] = 400 mg QPM, Week 4, omalizumab-naïve, angioedema at baseline

CC(C)(C=C(C#N)C(=O)N1CCC[C@@H](n2nc(-c3ccc(Oc4ccccc4)cc3F)c3c(N)ncnc32)C1)N1CCN(C2COC2)CC1 [rilzabrutinib, (R)-2-[3-[4-amino-3-(2-fluoro-4-phenoxy-phenyl)pyrazolo[3,4-d]pyrimidin-1-yl]piperidine-1-carbonyl]-4-methyl-4-[4-(oxetan-3-yl)piperazin-1-yl]pent-2-enenitrile]
AAS7 Change from baseline LS Mean (SE) [1]: −41.53 (4.39)
AAS7 Post-baseline Mean (SD) [1]: 11.73 (18.07)
Participants with AAS7 = 0, Responder n (%) [1]: 11 (42.3) n (%)
patients achieving angioedema score (AAS7) of 0 (400 mg BID, within one week of initiating treatment, omalizumab-naïve): 42.3%
AAS7 % Change difference for rilzabrutinib vs. placebo LS Mean (95% CI) [2]: −12.18 (−42.38, 18.02) %
AAS7 % Change from baseline LS Mean (SE) [2]: −32.14 (9.37) %
AAS7 Change difference for rilzabrutinib vs. placebo LS Mean (95% CI) [2]: −5.18 (−18.04, 7.67)
AAS7 Change from baseline LS Mean (SE) [2]: −19.68 (3.99)
AAS7 Post-baseline Mean (SD) [2]: 34.57 (21.50)
Non-responder n (%), AAS7 = 0 [3]: 24 (64.9) n (%)
OR (95% CI) for rilzabrutinib vs. placebo, AAS7 = 0 [3]: 1.428
RRD (%) for rilzabrutinib vs. placebo (95% CI), AAS7 = 0 [3]: 8.1 %
Responder n (%), AAS7 = 0 [3]: 13 (35.1) n (%)
AAS7 % Change difference for rilzabrutinib vs. placebo LS Mean (95% CI) [4]: −14.70 (−47.27, 17.88) %
AAS7 % Change from baseline LS Mean (SE) [4]: −31.74 (9.84) %
AAS7 = 0, OR (95% CI) for rilzabrutinib vs. placebo [4]: 3.545
AAS7 = 0, RRD (%) for rilzabrutinib vs. placebo (95% CI) [4]: 9.1 %
AAS7 Change difference for rilzabrutinib vs. placebo LS Mean (95% CI) [4]: −5.57 (−19.34, 8.21)
AAS7 Change from baseline LS Mean (SE) [4]: −19.33 (4.16)
AAS7 Post-baseline Mean (SD) [4]: 34.85 (21.86)
AAS7 % Change difference for rilzabrutinib vs. placebo LS Mean (95% CI) [5]: 4.26 (−27.23, 35.76) %
AAS7 Change from baseline LS Mean (SE) [5]: −21.54 (4.19)
AAS7 Post-baseline Mean (SD) [5]: 32.95 (23.02)
Non-responder n (%), AAS7 = 0 [6]: 24 (64.9) n (%)
OR (95% CI) for rilzabrutinib vs. placebo, AAS7 = 0 [6]: 0.875
RRD (%) for rilzabrutinib vs. placebo (95% CI), AAS7 = 0 [6]: −3.3 %
Responder n (%), AAS7 = 0 [6]: 13 (35.1) n (%)
AAS7 % Change difference for rilzabrutinib vs. placebo LS Mean (95% CI) [7]: 0.88 (−32.86, 34.63) %
AAS7 % Change from baseline LS Mean (SE) [7]: −36.33 (12.38) %
AAS7 = 0, OR (95% CI) for rilzabrutinib vs. placebo [7]: 0.514
AAS7 = 0, RRD (%) for rilzabrutinib vs. placebo (95% CI) [7]: −9.2 %
AAS7 Post-baseline Mean (SD) [7]: 33.25 (23.40)
AAS7 % Change difference for rilzabrutinib vs. placebo LS Mean (95% CI) [8]: 15.17 (−24.59, 54.94) %
AAS7 % Change from baseline LS Mean (SE) [8]: −33.35 (14.94) %
AAS7 Change difference for rilzabrutinib vs. placebo LS Mean (95% CI) [8]: 2.33 (−9.09, 13.74)
AAS7 Change from baseline LS Mean (SE) [8]: −21.82 (4.29)
AAS7 Post-baseline Mean (SD) [8]: 32.48 (20.51)
Non-responder n (%), AAS7 = 0 [9]: 25 (67.6) n (%)
OR (95% CI) for rilzabrutinib vs. placebo, AAS7 = 0 [9]: 1.041
RRD (%) for rilzabrutinib vs. placebo (95% CI), AAS7 = 0 [9]: 0.9 %
Responder n (%), AAS7 = 0 [9]: 12 (32.4) n (%)
AAS7 % Change difference for rilzabrutinib vs. placebo LS Mean (95% CI) [10]: 14.44 (−28.58, 57.46) %
AAS7 % Change from baseline LS Mean (SE) [10]: −33.23 (15.73) %
AAS7 = 0, Non-responder n (%) [10]: 23 (85.2) n (%)
AAS7 = 0, OR (95% CI) for rilzabrutinib vs. placebo [10]: 0.686
AAS7 = 0, RRD (%) for rilzabrutinib vs. placebo (95% CI) [10]: −5.0 %
AAS7 Post-baseline Mean (SD) [10]: 32.60 (20.89)
Participants with AAS7 = 0, Responder n (%) [10]: 4 (14.8) n (%)
AAS7 % Change difference for rilzabrutinib vs. placebo LS Mean (95% CI) [11]: −12.88 (−48.34, 22.58) %
AAS7 % Change from baseline LS Mean (SE) [11]: −49.47 (13.21) %
AAS7 Change difference for rilzabrutinib vs. placebo LS Mean (95% CI) [11]: −2.68 (−13.70, 8.35)
AAS7 Change from baseline LS Mean (SE) [11]: −25.28 (4.12)
AAS7 Post-baseline Mean (SD) [11]: 29.42 (20.30)
Non-responder n (%), AAS7 = 0 [12]: 23 (62.2) n (%)
OR (95% CI) for rilzabrutinib vs. placebo, AAS7 = 0 [12]: 0.874
RRD (%) for rilzabrutinib vs. placebo (95% CI), AAS7 = 0 [12]: −3.0 %
Responder n (%), AAS7 = 0 [12]: 14 (37.8) n (%)
AAS7 % Change difference for rilzabrutinib vs. placebo LS Mean (95% CI) [13]: −19.26 (−57.48, 18.97) %
AAS7 % Change from baseline LS Mean (SE) [13]: −49.19 (13.84) %
